Data set [1] in a line: Thermodynamic properties of sublimation and vaporization from Clarke and Glew fit of vapor pressures. An excerpt:
The experimental crystalline and liquid vapor pressures were independently fitted by the Clarke and Glew Equation (1) in its truncated form:(1) Rlnp/p^°=−ΔcdgGm°θ/θ+ΔcdgHm°θ1/θ−1/T+ΔcdgCp,m°θθ/T−1+lnT/θ where R is the molar gas constant, p is the vapor pressure at the temperature T, p° is a selected reference pressure (p° = 10^5 Pa in this work), and θ is a reference temperature. The differences between gaseous and condensed phases of standard molar Gibbs energy, enthalpy, and the isobaric heat capacity are represented, respectively, by ΔcdgGm° , ΔcdgHm° , and ΔcdgCp,m° .
The values of ΔcdgCp,m° are generally achieved only when accurate experimental data measured over ca. 50 K are reachable. […] For comparison reasons, the values of ΔcrgCp,m° were also calculated as ΔcrgCp,m°(θ)=Cp,m°(g)−Cp,m°(cr) , where the terms Cp,m°(g) and Cp,m°(cr) are, respectively, the gas and crystalline isobaric molar heat capacities. […] The crystalline molar heat capacities, Cp,m°(cr) , were determined at different temperatures using differential scanning calorimetry, enabling the fit to second-order polynomials in temperature, represented by Equation (3) and reported in Table 3. […] The values of Cp,m°(cr,298.15 K) were derived from these equations, allowing ΔcrgCp,m°(298.15 K) to be calculated.

The conditions of data set [2]: cited from earlier work.
For data set [3] the following is noted: 20 °C, cited from earlier work.
The mark [4] stands for this setting: crystalline phase, θ = 298.15 K.
[5] abbreviates: crystalline phase, θ = 298.15 K, p° = 10^5 Pa.
Setting [6] is: crystalline phase, θ = 307.92 K (mean temperature).
Setting [7] is: crystalline phase, θ = 334.82 K (triple point).
[8] abbreviates: liquid phase including supercooled liquid, θ = 298.15 K.
[9] abbreviates: liquid phase including supercooled liquid, θ = 298.15 K, p° = 10^5 Pa.
[10] abbreviates: liquid phase, θ = 334.82 K (triple point).
Setting [11] is: liquid phase, θ = 354.31 K (mean temperature).
[12] abbreviates: crystalline phase, θ = 313.72 K (mean temperature).
The mark [13] stands for this setting: crystalline phase, θ = 343.90 K (triple point).
Setting [14] is: liquid phase, θ = 343.90 K (triple point).
[15] abbreviates: liquid phase, θ = 350.04 K (mean temperature).
Setting [16] is: crystalline phase, θ = 315.46 K (mean temperature).
The mark [17] stands for this setting: crystalline phase, θ = 342.99 K (triple point).
The mark [18] stands for this setting: liquid phase, θ = 342.99 K (triple point).
Where [19] appears, read: liquid phase, θ = 358.95 K (mean temperature).
The mark [20] stands for this setting: crystalline phase, θ = 303.88 K (mean temperature).
The mark [21] stands for this setting: crystalline phase, θ = 330.02 K (triple point).
[22] abbreviates: liquid phase, θ = 330.02 K (triple point).
The mark [23] stands for this setting: liquid phase, θ = 345.37 K (mean temperature).
Setting [24] is: crystalline phase, θ = 291.18 K (mean temperature).
The mark [25] stands for this setting: crystalline phase, θ = 319.43 K (triple point).
Setting [26] is: liquid phase, θ = 319.43 K (triple point).
Where [27] appears, read: liquid phase, θ = 331.52 K (mean temperature).

Where two headings read alike, the source gives them in different places.

As for `O=Cc1cccc(Cl)c1Cl` [2,3-Dichlorobenzaldehyde], the “triple point pressure ptp” value in data set [1] (Ttp = 334.82 K) came to 87.6 Pa. Also, the “p (Equation (1)) vapor pressure” value in data set [1] (setting [4]) is given as 2.47 Pa; in data set [1] (setting [6]), 6.98 Pa; in data set [1] (setting [7]), 87.6 Pa; in data set [1] (setting [8]), 5.81 Pa; in data set [1] (setting [10]), 87.6 Pa; in data set [1] (setting [11]), 282 Pa. Besides, the “ΔcdgGm°(θ) standard molar Gibbs energy of sublimation” value came out at 6.286 ± 0.0024 kcal/mol in data set [1] (setting [5]), 5.856 ± 0.0024 kcal/mol in data set [1] (setting [6]) and 4.685 ± 0.0072 kcal/mol in data set [1] (setting [7]). Moreover, the entries for the “ΔcdgHm°(θ) standard molar enthalpy of sublimation” value in data set [1] (setting [5]), in data set [1] (setting [6]) and in data set [1] (setting [7]) were 19.4 ± 0.072 kcal/mol, 19.4 ± 0.048 kcal/mol and 19.2 ± 0.096 kcal/mol, respectively. For the same compound, the “ΔcdgSm°(θ) (Equation (2)) standard molar entropy of sublimation” value (“ΔcdgSm°(θ) … of sublimation” below) in data set [1] (setting [5]) amounted to 184.1 ± 1.0 J·K^−1·mol^−1. Besides, the results for the “ΔcdgGm°(θ) standard molar Gibbs energy of vaporization” value in data set [1] (setting [9]), in data set [1] (setting [10]) and in data set [1] (setting [11]) were 5.779 ± 0.019 kcal/mol, 4.685 ± 0.0072 kcal/mol and 4.132 ± 0.0024 kcal/mol, respectively. Moreover, the “ΔcdgHm°(θ) standard molar enthalpy of vaporization” value amounted to 15 ± 0.263 kcal/mol in data set [1] (setting [9]), 14.3 ± 0.096 kcal/mol in data set [1] (setting [10]) and 14 ± 0.024 kcal/mol in data set [1] (setting [11]). Also, the “ΔcdgSm°(θ) (Equation (2)) standard molar entropy of vaporization” value (“ΔcdgSm°(θ) … of vaporization” for short) in data set [1] (setting [9]) was 129.2 ± 3.7 J·K^−1·mol^−1.
In the case of `O=Cc1ccc(Cl)cc1Cl` [2,4-Dichlorobenzaldehyde], the “triple point pressure ptp” value in data set [1] (Ttp = 343.90 K) is 2.01 × 10^2 Pa. For the same compound, the “p (Equation (1)) vapor pressure” value in data set [1] (setting [4]) is given as 2.64 Pa; in data set [1] (setting [12]), 13.5 Pa; in data set [1] (setting [13]), 201 Pa; in data set [1] (setting [8]) it was 7.95 Pa; in data set [1] (setting [14]), 201 Pa; in data set [1] (setting [15]), 289 Pa. The “ΔcdgGm°(θ) standard molar Gibbs energy of sublimation” value in data set [1] (setting [5]) amounted to 6.245 ± 0.0024 kcal/mol; in data set [1] (setting [12]) it was 5.557 ± 0.0024 kcal/mol; in data set [1] (setting [13]) it was 4.242 ± 0.0048 kcal/mol. In addition, the “ΔcdgHm°(θ) standard molar enthalpy of sublimation” value worked out at 19.5 ± 0.048 kcal/mol in data set [1] (setting [5]), 19.4 ± 0.024 kcal/mol in data set [1] (setting [12]) and 19.1 ± 0.12 kcal/mol in data set [1] (setting [13]). In addition, the “ΔcdgSm°(θ) … of sublimation” value in data set [1] (setting [5]) is 185.7 ± 0.7 J·K^−1·mol^−1. The “ΔcdgGm°(θ) standard molar Gibbs energy of vaporization” value is 5.593 ± 0.012 kcal/mol in data set [1] (setting [9]), 4.242 ± 0.0048 kcal/mol in data set [1] (setting [14]) and 4.068 ± 0.0024 kcal/mol in data set [1] (setting [15]). For the same compound, the figures for the “ΔcdgHm°(θ) standard molar enthalpy of vaporization” value in data set [1] (setting [9]), in data set [1] (setting [14]) and in data set [1] (setting [15]) were 14.8 ± 0.17 kcal/mol, 14 ± 0.024 kcal/mol and 13.9 ± 0.024 kcal/mol, respectively. Moreover, the “ΔcdgSm°(θ) … of vaporization” value in data set [1] (setting [9]) stood at 129.1 ± 2.4 J·K^−1·mol^−1.
As for `O=Cc1c(Cl)cccc1Cl` [2,6-Dichlorobenzaldehyde], the “triple point pressure ptp” value in data set [1] (Ttp = 342.99 K) was 85.7 Pa. Further, the “p (Equation (1)) vapor pressure” value in data set [1] (setting [4]) is 0.95 Pa; in data set [1] (setting [16]), 6.35 Pa; in data set [1] (setting [17]), 85.7 Pa; in data set [1] (setting [8]) it was 2.84 Pa; in data set [1] (setting [18]), 85.7 Pa; in data set [1] (setting [19]) it was 225 Pa. The “ΔcdgGm°(θ) standard molar Gibbs energy of sublimation” value was 6.85 ± 0.0024 kcal/mol in data set [1] (setting [5]), 6.059 ± 0.0024 kcal/mol in data set [1] (setting [16]) and 4.814 ± 0.0048 kcal/mol in data set [1] (setting [17]). Further, the “ΔcdgHm°(θ) standard molar enthalpy of sublimation” value in data set [1] (setting [5]) worked out at 20.5 ± 0.096 kcal/mol; in data set [1] (setting [16]), 20.4 ± 0.024 kcal/mol; in data set [1] (setting [17]) it was 20.2 ± 0.17 kcal/mol. The “ΔcdgSm°(θ) … of sublimation” value in data set [1] (setting [5]) is recorded as 192.0 ± 1.3 J·K^−1·mol^−1. The “ΔcdgGm°(θ) standard molar Gibbs energy of vaporization” value in data set [1] (setting [9]) amounted to 6.202 ± 0.0239 kcal/mol; in data set [1] (setting [18]) it was 4.814 ± 0.0048 kcal/mol; in data set [1] (setting [19]), 4.348 ± 0.0024 kcal/mol. The “ΔcdgHm°(θ) standard molar enthalpy of vaporization” value was found to be 15.8 ± 0.287 kcal/mol in data set [1] (setting [9]), 15 ± 0.072 kcal/mol in data set [1] (setting [18]) and 14.7 ± 0.024 kcal/mol in data set [1] (setting [19]). The “ΔcdgSm°(θ) … of vaporization” value in data set [1] (setting [9]) stood at 135.0 ± 4.0 J·K^−1·mol^−1.
For the compound `O=Cc1ccc(Br)cc1` [4-Bromobenzaldehyde], in data set [1] (Ttp = 330.02 K), the “triple point pressure ptp” value worked out at 99.1 Pa. For the same compound, the “p (Equation (1)) vapor pressure” value was found to be 4.59 Pa in data set [1] (setting [4]); 8.40 Pa in data set [1] (setting [20]); 99.1 Pa in data set [1] (setting [21]); 9.57 Pa in data set [1] (setting [8]); 99.1 Pa in data set [1] (setting [22]); 254 Pa in data set [1] (setting [23]). Also, the entries for the “ΔcdgGm°(θ) standard molar Gibbs energy of sublimation” value in data set [1] (setting [5]), in data set [1] (setting [20]) and in data set [1] (setting [21]) were 5.918 ± 0.0024 kcal/mol, 5.667 ± 0.0024 kcal/mol and 4.536 ± 0.0072 kcal/mol, respectively. In addition, the “ΔcdgHm°(θ) standard molar enthalpy of sublimation” value in data set [1] (setting [5]) was found to be 19 ± 0.048 kcal/mol; in data set [1] (setting [20]) it was 18.9 ± 0.048 kcal/mol; in data set [1] (setting [21]) it was 18.7 ± 0.17 kcal/mol. Also, the “ΔcdgSm°(θ) … of sublimation” value in data set [1] (setting [5]) amounted to 183.3 ± 0.7 J·K^−1·mol^−1. The “ΔcdgGm°(θ) standard molar Gibbs energy of vaporization” value in data set [1] (setting [9]) came out at 5.483 ± 0.012 kcal/mol; in data set [1] (setting [22]), 4.536 ± 0.0072 kcal/mol; in data set [1] (setting [23]), 4.101 ± 0.0024 kcal/mol. The entries for the “ΔcdgHm°(θ) standard molar enthalpy of vaporization” value in data set [1] (setting [9]), in data set [1] (setting [22]) and in data set [1] (setting [23]) were 14.6 ± 0.17 kcal/mol, 14 ± 0.072 kcal/mol and 13.7 ± 0.024 kcal/mol, respectively. In addition, the “ΔcdgSm°(θ) … of vaporization” value in data set [1] (setting [9]) worked out at 128.3 ± 2.4 J·K^−1·mol^−1. The figures for the “water solubility, estimated value” in data set [2] (ALI method), in data set [2] (ESOL method) and in data set [2] (SILICO-IT method) were 7.06 mM, 1.68 mM and 0.634 mM, respectively.
`O=Cc1ccc(Cl)cc1` [4-Chlorobenzaldehyde]: in data set [1] (Ttp = 319.43 K), the “triple point pressure ptp” value was 1.23 × 10^2 Pa. Moreover, the “p (Equation (1)) vapor pressure” value in data set [1] (setting [24]) is recorded as 8.54 Pa; in data set [1] (setting [4]) it was 17.3 Pa; in data set [1] (setting [25]), 123 Pa; in data set [1] (setting [8]), 27.3 Pa; in data set [1] (setting [26]), 123 Pa; in data set [1] (setting [27]), 262 Pa. Besides, the “ΔcdgGm°(θ) standard molar Gibbs energy of sublimation” value came out at 5.421 ± 0.0024 kcal/mol in data set [1] (setting [24]), 5.131 ± 0.0024 kcal/mol in data set [1] (setting [5]) and 4.252 ± 0.0048 kcal/mol in data set [1] (setting [25]). Further, the entries for the “ΔcdgHm°(θ) standard molar enthalpy of sublimation” value in data set [1] (setting [24]), in data set [1] (setting [5]) and in data set [1] (setting [25]) were 17.6 ± 0.024 kcal/mol, 17.5 ± 0.048 kcal/mol and 17.4 ± 0.14 kcal/mol, respectively. For the same compound, the “ΔcdgSm°(θ) … of sublimation” value in data set [1] (setting [5]) turned out to be 173.8 ± 0.7 J·K^−1·mol^−1. Moreover, the “ΔcdgGm°(θ) standard molar Gibbs energy of vaporization” value in data set [1] (setting [9]) came to 4.861 ± 0.0072 kcal/mol; in data set [1] (setting [26]), 4.252 ± 0.0048 kcal/mol; in data set [1] (setting [27]), 3.917 ± 0.0024 kcal/mol. Besides, the “ΔcdgHm°(θ) standard molar enthalpy of vaporization” value is 13.6 ± 0.14 kcal/mol in data set [1] (setting [9]), 13.2 ± 0.048 kcal/mol in data set [1] (setting [26]) and 13 ± 0.024 kcal/mol in data set [1] (setting [27]). The “ΔcdgSm°(θ) … of vaporization” value in data set [1] (setting [9]) amounted to 122.0 ± 2.0 J·K^−1·mol^−1. Moreover, the water solubility in data set [3] (converted from 935 mg/L) was 6.652 mM; in data set [3], 935 µg/mL. In addition, the “water solubility, estimated value” in data set [2] (25 °C, converted from 1340 mg/L) was 9.532 mM; in data set [2] (25 °C) it was 1340 µg/mL; in data set [2] (ALI method), 8.15 mM; in data set [2] (ESOL method) it was 3.45 mM; in data set [2] (SILICO-IT method) it was 1.16 mM.

The record behind these values is PMC11990670, “Exploring the Volatility, Phase Transitions, and Solubility Properties of Five Halogenated Benzaldehydes” (Molecules, 2025).
